{"source": "patent US20140135272A1", "about": "“NOVEL ZINC FINGER-LIKE PEPTIDE COMPOSITIONS AS POTENT AGENTS IN CANCER PREVENTION AND TREATMENT” (priority 2011, published 2014)", "format_in_all_cases": "in vivo, nude mice", "key": {"[1]": {"test_system": "malignant prostate cancer DU145 cells", "test": "Example 9: peptide pre-injection, malignant prostate cancer DU145 cells inoculated three months later, tumor volumes", "conditions": "peptide 2 mM, 100 μl i.v. per week for 3 weeks, vs H2O control", "description": "(§1) In the following examples, 8-week nude mice were used as host subjects to perform in vivo experiments. The nude mice were placed in room temperature and suitable humidity, and supplied with sterile water and standard food for 2 consecutive weeks before performing experiments. Then, the nude mice were injected with zinc finger-like peptide and tumor cells. The detailed processes for the experiments are described as follows.\n(§2) First, manually synthesized zinc finger-like peptide (Genemed Synthesis Inc., San Antonio, Tex., USA) was resuspended in degassed purified water to obtain 1-5 mM of zinc finger-like peptide solution (100 μl). Herein, the solution for suspending the zinc finger-like peptide is not particularly limited. Preferably, the zinc finger-like peptide is resuspended in degassed purified water, in order to prevent the self-polymerization of the zinc finger-like peptide and loss its ability to inhibit tumor cell growth.\n(§3) In the present experimental group, zinc finger-like peptide with sequence shown in SEQ ID NO: 1 was injected into nude mice.\nNude mice were injected with an intravenous injection of peptide (2 mM, 100 μl) via tail veins per week for 3 consecutive weeks, followed by inoculating malignant prostate cancer DU145 cells (2 million cells/100 μl medium) at both the right and left flanks three months later. […]"}, "[2]": {"test_system": "breast carcinoma MDA-MB-468", "test": "Example 7: peptide pre-injection, then breast carcinoma MDA-MB-468 inoculation, tumor volumes", "conditions": "peptide 3 mM, 100 μl i.v. per week for 3 weeks before MDA-MB-468 inoculation; vs H2O control", "description": "as §1, §2, §3\nNude mice were injected with an intravenous injection of peptide (3 mM, 100 μl) via tail veins per week for 3 consecutive weeks, followed by inoculating breast carcinoma MDA-MB-468 (2 million cells/100 μl medium) at both the right and left flanks. The tumor volumes (mm^3) were observed daily during the whole experiment. […]"}, "[3]": {"test_system": "prostatic epithelial cells PZ-HPV-7", "test": "Example 10: peptide pre-injection, then prostatic epithelial cells PZ-HPV-7 inoculation, tumor volumes", "conditions": "peptide 2 mM, 100 μl i.v. per week for 3 weeks; PZ-HPV-7 inoculated on the 20th and 90th day; vs H2O control", "description": "as §1, §2, §3\nNude mice were injected with an intravenous injection of peptide (2 mM, 100 μl) via tail veins per week for 3 consecutive weeks, followed by inoculating prostatic epithelial cells PZ-HPV-7 (2 million cells/100 μl medium) at both the right and left flanks on the 20th day and the 90th day. […]"}, "[4]": {"test_system": "malignant melanoma B16F10", "test": "Example 3: peptide pre-injection, then malignant melanoma B16F10 inoculation, tumor volumes", "conditions": "peptide 2 mM, 100 μl sterile water i.v. per week for 3 weeks before B16F10 inoculation; vs H2O control", "description": "as §1, §2\nHerein, zinc finger-like peptide with sequence shown in SEQ ID NO: 1 is injected into nude mice.\nWith this experimental group, nude mice received an intravenous injection of peptide (2 mM, 100 μl sterile water) via tail veins per week for 3 consecutive weeks, followed by inoculation of malignant melanoma B16F10 (2 million cells/100 μl PBS) at both the right and left flanks. The tumor volumes (mm^3) were observed daily during the whole experiment. […]"}, "[5]": {"test_system": "malignant melanoma B 16F10", "test": "Example 4: peptide variants pre-injected, then malignant melanoma B16F10 inoculation, tumor volumes and death", "conditions": "peptide 2 mM, 100 μl i.v. per week for 2 weeks before B16F10 inoculation", "description": "as §1, §2\nNude mice received an intravenous injection of peptide (2 mM, 100 μl) via tail veins per week for 2 consecutive weeks, followed by inoculating malignant melanoma B 16F10 (2 million cells/100 μl PBS) at both the right and left flanks. The tumor volumes (mm^3) were observed daily during the whole experiment.\nas §3\nIn the present experimental group, zinc finger-like peptide with sequence shown in SEQ ID NO: 1, in which the fifth amino acid, serine was phosphorylated, and injected into nude mice.\nIn the present experimental group, zinc finger-like peptide with sequence shown in SEQ ID NO: 6 was injected into nude mice.\nIn the present experimental group, zinc finger-like peptide with sequence shown in SEQ ID NO: 6, in which the fourth amino acid serine was phosphorylated, and injected nude mice.\nIn the control group, H2O (100 μl) was injected into nude mice."}, "BCC cells": {"test_system": "BCC cells", "test": "Example 2: peptide pre-injection plus boost injection, BCC cell inoculation, tumor volumes", "conditions": "peptide 2 mM, 100 μl i.v. per week for 3 weeks before BCC inoculation; boost per week for 3 weeks 2 months later; vs H2O control", "description": "as §1, §2, §3\nNude mice were injected with an intravenous injection of peptide (2 mM, 100 μl PBS) via tail veins per week for 3 consecutive weeks, followed by inoculating BCC cells (2 million cells/100 μl PBS) at both the right and left flanks. 2 months later, boost injection of peptide was carried out per week for 3 consecutive weeks. […]"}, "[6]": {"test_system": "malignant glioma U87-MG cells", "test": "Example 11: peptide pre-injection, malignant glioma U87-MG cells inoculated 1 month later, tumor volumes", "conditions": "for growth and proliferation of tumor cells (tumor volumes): 100 μl i.v. per week for 3 weeks, U87-MG inoculated 1 month later, vs H2O control", "description": "as §1, §2\nThe process of the present control group was the same as that of the experimental group, except that the zinc finger-like peptide of the experimental group was substituted with H2O (100 μl) in the present control group. The result is shown in FIG. 11A, which is a curve representing the tumor volumes of mice.\nas §3\nNude mice were injected with an intravenous injection of peptide (2 mM, 100 μl) via tail veins per week for 3 consecutive weeks, followed by inoculating malignant glioma U87-MG cells (2 million cells/100 μl medium) at both the right and left flanks 1 month later. The tumor volumes (mm^3) were observed daily during the whole experiment. The result is shown in FIG. 11B, which is a curve representing the tumor volumes of mice.\nThe process of the present control group was the same as that of the experimental group 1, except that the concentration of the zinc finger-like peptide is 4 mM. The result is shown in FIG. 11C, which is a curve representing the tumor volumes of mice."}}, "data": [{"substance": "RRSSSCK [SEQ ID NO: 1, zinc finger-like peptide, manually synthesized]", "values": [{"measurement": "growth and proliferation of tumor cells (tumor volumes)", "setting": "[1]", "result": "the growth and proliferation of tumor cells were not observed"}, {"measurement": "growth and proliferation of tumor cells (tumor volumes)", "setting": "[2]", "result": "the growth and proliferation of tumor cells were not observed"}, {"measurement": "growth and proliferation of tumor cells (tumor volumes)", "setting": "[3]", "result": "the growth and proliferation of tumor cells were not observed"}, {"measurement": "tumor growth (tumor volumes)", "setting": "[4]", "result": "can inhibit the growth of skin melanoma on nude mice"}, {"measurement": "skin cancer completely cured after", "setting": "[5]", "result": 115, "unit": "days"}, {"measurement": "tumor growth / activity on skin cancer treatment", "setting": "[5]; vs H2O control", "result": "can effectively inhibit the growth of tumor cells"}, {"measurement": "tumor growth (tumor volumes)", "setting": "BCC cells", "result": "can prevent and inhibit the growth of cancer cell"}, {"measurement": "concentration dependence of suppression on tumor cell growth", "setting": "[6]; 2 mM vs 4 mM peptide, U87-MG", "result": "the suppression on tumor cell growth was getting significant as the concentration of the zinc finger-like peptide increased"}, {"measurement": "growth and proliferation of tumor cells (tumor volumes)", "setting": "[6]; peptide 2 mM", "result": "slower than that observed in the control group"}, {"measurement": "growth and proliferation of tumor cells (tumor volumes)", "setting": "[6]; peptide 4 mM", "result": "slower than that observed in the control group"}]}]}
